# Assay results reported in paper PMC8546167, “Osh6 Revisited: Control of PS Transport by the Concerted Actions of PI4P and Sac1 Phosphatase” (Frontiers in Molecular Biosciences, 2021).
# Target: T1, Osh6 (Saccharomyces cerevisiae, UniProt Q02201)
# T1 construct: recombinant in E. coli BL21 Star; N-terminal His6-GB1 tag cleaved by TEV
# T1 sequence (Q02201 1-448): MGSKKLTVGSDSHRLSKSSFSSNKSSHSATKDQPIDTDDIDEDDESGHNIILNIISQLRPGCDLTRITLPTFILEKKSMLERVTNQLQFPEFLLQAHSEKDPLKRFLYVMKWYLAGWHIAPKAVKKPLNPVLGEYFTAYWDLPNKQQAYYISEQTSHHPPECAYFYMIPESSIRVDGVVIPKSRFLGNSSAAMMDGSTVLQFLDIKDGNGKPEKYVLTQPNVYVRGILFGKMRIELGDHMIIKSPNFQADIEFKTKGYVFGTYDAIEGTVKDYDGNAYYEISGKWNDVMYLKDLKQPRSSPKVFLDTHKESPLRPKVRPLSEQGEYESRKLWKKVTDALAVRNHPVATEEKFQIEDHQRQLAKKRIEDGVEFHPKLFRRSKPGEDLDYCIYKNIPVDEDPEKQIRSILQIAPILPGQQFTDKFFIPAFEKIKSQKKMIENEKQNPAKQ
# Experiment: FRET transport between LUVs, C2Lact-CFP biosensor and ATTO488-DOPE
# Type: biochemical
# Details: 100 nM Osh6; 5 mol% POPS donor LUVs to POPC acceptor LUVs
smiles,measurement,value
"CCCCCCCC/C=C\CCCCCCCC(=O)O[C@H](COC(=O)CCCCCCCCCCCCCCC)COP(=O)(O)OC[C@H](N)C(=O)O [PS, POPS]","FRET transport between LUVs, C2Lact-CFP biosensor and ATTO488-DOPE",Osh6 molecules pick up PS molecules from any membrane of high PS content
